Legend:
HepG2 = test: Western blot, semi-quantitative protein expression; type: cell-based, human
Experimental: For the Western Blot analysis, cells were rinsed and lysed as previously described. An amount of 25 µg protein was used for SDS-PAGE. Antibodies for c-Abl (sc-131), Actin (sc-1616), Cdc2-p34 (sc-8395), EPS15 (sc-1840), FAK (sc-558), c-Fos (sc-52), p38 (sc-7972), p53 (sc-6243) and STAT5 (sc-835x) were obtained from Santa Cruz (Santa Cruz Biotechnology, Heidelberg, Germany), while c-Src (2109) and phospho-Src Y416 (2101) were purchased from Cell Signaling (Cell Signaling Technology, Frankfurt a. M., Germany). The EGFR (06-847), phospho-EGFR Y992 (07-821) and phospho-EGFR Y1045 (04-284) stem from Upstate (Upstate, Schwalbach, Germany) and the hnRNP-K (A300-676A) from Bethyl Labs (Bethyl Laboratories, Montgomery, Texas, USA). Finally p73 (IMG-246) was supplied by Imgenex (Imgenex, Hamburg, Germany). Depending on the primary antibody the secondary antibodies were either horseradish peroxidase-conjugated anti-mouse (AP 160P), anti-rabbit (AP 132P) or anti-sheep (AP 147P) (Chemicon, Schwalbach, Germany).
Semi-quantitative analysis were carried out with Kodak 1D Image Analysis Software in reference to the vehicle treated control cells (see supplementary table S7).

GammaA3 = test: Whole genome expression analysis (Affymetrix microarray); type: cell-based, mouse; settings: for Significantly differentially regulated genes, downregulated (number) / Significantly differentially regulated genes, upregulated (number): SAM FDR<0.01, FC>2
Experimental: (§1) The cells were harvested and RNA was isolated using RNeasy Mini Kit (Qiagen, Hilden, Germany) according to the instructions of the manufacturer. The isolated RNA (250 ng) was processed further using standard protocols as described recently with the exception of the 3′ IVT Express Kit (Affymetrix, High Wycombe, UK) that was utilized according to instructions. Quality control of cRNA was done with the Agilent 2100 Bioanalyzer (Agilent Tech according to manufacturer's protocols. Following fragmentation, cRNA of each sample was hybridized to Affymetrix GeneChip® Mouse Genome 430 2.0 or Human Genome U133 Plus 2.0 and scanned with an Affymetrix 3000 7G scanner.
(§2) The resultant data was normalized by Probe Logarithmic Intensity Error Estimation (PLIER) algorithm. Statistical analysis was carried out with the ArrayTrack software (National Center for Toxicological Research/FDA, Jefferson, AR, USA) using SAM algorithm.

c-Src = target: T1, c-Src (Homo sapiens, UniProt P12931); test: Src filter-binding kinase assay (Src Assay Kit); type: biochemical
T1 construct: His tag; purchased Upstate (Lake Placid, NY, USA)
T1 sequence (P12931 whole entry): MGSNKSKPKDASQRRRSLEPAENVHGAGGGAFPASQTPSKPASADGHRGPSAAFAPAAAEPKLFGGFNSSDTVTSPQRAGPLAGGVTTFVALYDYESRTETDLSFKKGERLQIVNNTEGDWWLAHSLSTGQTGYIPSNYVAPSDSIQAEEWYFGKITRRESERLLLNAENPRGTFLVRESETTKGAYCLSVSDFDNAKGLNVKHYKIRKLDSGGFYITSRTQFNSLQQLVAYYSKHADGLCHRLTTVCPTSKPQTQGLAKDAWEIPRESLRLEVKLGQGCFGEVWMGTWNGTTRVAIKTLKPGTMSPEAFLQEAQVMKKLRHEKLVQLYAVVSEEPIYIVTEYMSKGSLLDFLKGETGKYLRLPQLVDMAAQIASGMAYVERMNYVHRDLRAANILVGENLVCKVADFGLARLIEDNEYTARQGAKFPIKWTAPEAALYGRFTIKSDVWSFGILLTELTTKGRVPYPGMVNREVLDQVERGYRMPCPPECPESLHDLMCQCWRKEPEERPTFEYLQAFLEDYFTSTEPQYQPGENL
Experimental: Baculovirus-produced recombinant purified his-tagged active against human Src and Abl were purchased from Upstate (Lake Placid, NY, USA).
Src activity was measured in a filter-binding assay using the Src Assay Kit (Upstate, Lake Placid, NY, USA), according to the manufacturer's protocol, using the specific Src peptide substrate [[…]] in the presence of 0.125 pmol of Src and 0.160 pmol of [γ-^32P]ATP. Abl activity was measured in a filter-binding assay using an Abl specific peptide substrate (Abtide, Upstate). Reaction conditions were (in a final volume of 10 µl): 25 mM Tris-HCl pH 7.5, 1 mM DTT, 0.012 µM [γ-^32P]ATP, 0.022 µM c-Abl. Reactions were incubated 10 min at 30°C.The samples (9 µl) were spotted on paper cellulose filters which were washed according to the manufacturer's protocol. Filter-bound radioactivity was measured by liquid scintillation with a Microbeta-Trilux apparatus (PerkinElmer, Waltham, MA, USA).
The ID50 were converted to Ki according to a competitive mechanism with respect to the substrate ATP. […] Since (i) the ATP concentration was limiting, i.e., [ATP], Km(ATP), and (ii) the enzyme concentration was not negligible with respect to the ATP concentration, the classical Cheng-Prusoff relationship was not applicable. Consequently, Ki values were calculated according to [drawing 3] (2) where S0 is the concentration of the competing substrate (ATP) and E0 is the concentration of the enzyme. Each experiment was done in triplicate and mean values were used for the interpolation. Curve fitting was performed with the program GraphPad Prism.

[1] = system: murine and human cell lines; test: Whole genome expression analysis, statements over several cell lines; type: cell-based
Experimental: as §1, §2

A2C12 = test: Cell cycle analysis by flow cytometry; type: cell-based, mouse; settings: IC50 concentration, 96 h
How it was run: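 Read-out is DNA content by flow cytometry using a commercial cell-cycle staining kit. Samples pass sequentially through kit solutions A (10 min, room temperature), B and C, the last step at 4°C protected from light, and are then held on ice in the dark.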

[2] = IC50 concentration, 96 h, vs control

Fc1ccccc1CNc1ncnc2c1cnn2CC(Cl)c1ccc(Br)cc1 (stereo not shown) [Si162]
Actin protein expression (HepG2): 77 | Cdc2-p34 protein expression (HepG2): 12 | EGFR Y992-p protein expression (HepG2): 20 | EGFR Y1045-p protein expression (HepG2): 60 | EGFR protein expression (HepG2): 535 | EPS15 protein expression (HepG2): 56 | FAK protein expression (HepG2): 96 | STAT5 protein expression (HepG2): 35 | c-Abl protein expression (HepG2): 46 | c-Fos protein expression (HepG2): 58 | c-Src Y416-p protein expression (HepG2): 82 | c-Src protein expression (HepG2): 86 | hnRNP-K protein expression (HepG2): 59 | p38 protein expression (HepG2): 48 | p53 protein expression (HepG2): 73 | Actg2 (actin, gamma 2, smooth muscle, enteric) regulated gene, Si162 vs Ktr FC (GammaA3): -4.78 | Bcl2l11 (BCL2-like 11 (apoptosis facilitator) (Bim)) regulated gene, Si162 vs Ktr FC (GammaA3): 1.33 | Birc5 (baculoviral IAP repeat-containing 5) regulated gene, Si162 vs Ktr FC (GammaA3): -3.04 | Capn5 (calpain 5) regulated gene, Si162 vs Ktr FC (GammaA3): 1.96 | Casp6 (caspase 6, apoptosis-related cysteine peptidase) regulated gene, Si162 vs Ktr FC (GammaA3): 1.07 | Ccna2 (cyclin A2) regulated gene, Si162 vs Ktr FC (GammaA3): -2.93 | Ccnb2 (cyclin B2) regulated gene, Si162 vs Ktr FC (GammaA3): -2.44 | Cdc2 (cell division cycle 2 (Cdk1)) regulated gene, Si162 vs Ktr FC (GammaA3): -2.12 | Cdkn1a (cyclin-dependent kinase inhibitor 1A (p21Cip1)) regulated gene, Si162 vs Ktr FC (GammaA3): 1.27 | Cdkn2b (cyclin-dependent kinase inhibitor 2B (p15)) regulated gene, Si162 vs Ktr FC (GammaA3): 1.13 | Cdkn3 (cyclin-dependent kinase inhibitor 3) regulated gene, Si162 vs Ktr FC (GammaA3): -2.80 | Cenpa (centromere protein A) regulated gene, Si162 vs Ktr FC (GammaA3): -2.62 | Crk (v-crk sarcoma virus CT10 oncogene homolog (avian)) regulated gene, Si162 vs Ktr FC (GammaA3): -2.00 | Ctnnb1 (catenin (cadherin-associated protein), beta 1, 88kDa) regulated gene, Si162 vs Ktr FC (GammaA3): 1.94 | Ctsb (cathepsin B) regulated gene, Si162 vs Ktr FC (GammaA3): 1.20 | Cxcl12 (chemokine (C-X-C motif) ligand 12) regulated gene, Si162 vs Ktr FC (GammaA3): -2.74 | Dgka (diacylglycerol kinase, alpha 80kDa) regulated gene, Si162 vs Ktr FC (GammaA3): 2.90 | Fas (Fas (TNF receptor superfamily, member 6)) regulated gene, Si162 vs Ktr FC (GammaA3): 1.40 | Gadd45a (growth arrest and DNA-damage-inducible, alpha) regulated gene, Si162 vs Ktr FC (GammaA3): 2.78 | Grb10 (growth factor receptor-bound protein 10) regulated gene, Si162 vs Ktr FC (GammaA3): 3.65 | Gsk3b (glycogen synthase kinase 3 beta) regulated gene, Si162 vs Ktr FC (GammaA3): 1.12 | Itga6 (integrin, alpha 6) regulated gene, Si162 vs Ktr FC (GammaA3): 4.04 | Jakmip3 (janus kinase and microtubule interacting protein 3) regulated gene, Si162 vs Ktr FC (GammaA3): 4.07 | Lrdd (leucine-rich repeats and death domain containing (Pidd)) regulated gene, Si162 vs Ktr FC (GammaA3): 1.03 | Mdm2 (Mdm2 p53 binding protein homolog (mouse)) regulated gene, Si162 vs Ktr FC (GammaA3): 2.15 | Mmp3 (matrix metallopeptidase 3 (stromelysin 1, progelatinase)) regulated gene, Si162 vs Ktr FC (GammaA3): 2.73 | Mmp13 (matrix metallopeptidase 13 (collagenase 3)) regulated gene, Si162 vs Ktr FC (GammaA3): 2.98 | Nfib (nuclear factor I/B) regulated gene, Si162 vs Ktr FC (GammaA3): -1.23 | Notch3 (Notch homolog 3 (Drosophila)) regulated gene, Si162 vs Ktr FC (GammaA3): 2.78 | Ogn (osteoglycin) regulated gene, Si162 vs Ktr FC (GammaA3): -5.01 | Perp (PERP, TP53 apoptosis effector) regulated gene, Si162 vs Ktr FC (GammaA3): 6.09 | Pik3ca (phosphoinositide-3-kinase, catalytic, alpha polypeptide) regulated gene, Si162 vs Ktr FC (GammaA3): 1.27 | Plcg2 (phospholipase C, gamma 2) regulated gene, Si162 vs Ktr FC (GammaA3): 1.36 | Plk1 (polo-like kinase 1 (Drosophila)) regulated gene, Si162 vs Ktr FC (GammaA3): -3.17 | Pmaip1 (phorbol-12-myristate-13-acetate-induced protein 1 (Noxa)) regulated gene, Si162 vs Ktr FC (GammaA3): 1.94 | Ptk2 (PTK2 protein tyrosine kinase 2 (FAK)) regulated gene, Si162 vs Ktr FC (GammaA3): 1.99 | Rock1 (Rho-associated, coiled-coil containing protein kinase 1) regulated gene, Si162 vs Ktr FC (GammaA3): 1.14 | Spp1 (secreted phosphoprotein 1) regulated gene, Si162 vs Ktr FC (GammaA3): 1.01 | Srf (serum response factor) regulated gene, Si162 vs Ktr FC (GammaA3): -1.12 | Tec (tec protein tyrosine kinase) regulated gene, Si162 vs Ktr FC (GammaA3): 3.51 | Tgfb2 (transforming growth factor, beta 2) regulated gene, Si162 vs Ktr FC (GammaA3): -1.69 | Tnc (tenascin C) regulated gene, Si162 vs Ktr FC (GammaA3): -1.32 | Zyx (zyxin) regulated gene, Si162 vs Ktr FC (GammaA3): -1.59 | Significantly regulated genes, total (number) (GammaA3; IC50 concentration, 96 h): more than 3500 | Significantly differentially regulated genes, downregulated (number) (GammaA3; IC50 concentration, 96 h): 1139 | Significantly differentially regulated genes, upregulated (number) (GammaA3; IC50 concentration, 96 h): 2453 | Ki (c-Src; isolated Src, calculated from ID50, ATP-competitive, E0 0.005, S0 0.012 µM): 42 nM | Commonly regulated genes in both murine cell lines (number) ([1]; A2C12 and GammaA3, Fig. 4D): 259 | Genes regulated in common amongst all three human cell lines (number) ([1]; A549, CaCo2, HepG2, Fig. 4B): two

Clc1cccc(Nc2nc(SC3CCCC3)nc3c2cnn3CC(Cl)c2ccccc2)c1 (stereo not shown) [Si135]
Actin protein expression (HepG2): 68 | Cdc2-p34 protein expression (HepG2): 9 | EGFR Y992-p protein expression (HepG2): 8 | EGFR Y1045-p protein expression (HepG2): 28 | EGFR protein expression (HepG2): 261 | EPS15 protein expression (HepG2): 48 | FAK protein expression (HepG2): 130 | STAT5 protein expression (HepG2): 61 | c-Abl protein expression (HepG2): 34 | c-Fos protein expression (HepG2): 43 | c-Src Y416-p protein expression (HepG2): 16 | c-Src protein expression (HepG2): 78 | hnRNP-K protein expression (HepG2): 70 | p38 protein expression (HepG2): 51 | p53 protein expression (HepG2): 19 | Significantly differentially regulated genes, downregulated (number) (GammaA3; IC50 concentration, 96 h): 66 | Significantly differentially regulated genes, upregulated (number) (GammaA3; IC50 concentration, 96 h): 79 | Actg2 gene expression (GammaA3; [2]): -1.23 log2 of fold change | Ccl5 gene expression (GammaA3; [2]): 3.04 log2 of fold change | Cenpa gene expression (GammaA3; [2]): 1.11 log2 of fold change | Col1a1 gene expression (GammaA3; [2]): -1.15 log2 of fold change | Has2 gene expression (GammaA3; [2]): -1.09 log2 of fold change | Itga6 gene expression (GammaA3; [2]): 1.72 log2 of fold change | Mapk8ip1 gene expression (GammaA3; [2]): -1.05 log2 of fold change | Mmp3 gene expression (GammaA3; [2]): 1.52 log2 of fold change | Mmp13 gene expression (GammaA3; [2]): 1.29 log2 of fold change | Ngef gene expression (GammaA3; [2]): 1.56 log2 of fold change | Tbrg4 gene expression (GammaA3; [2]): -1.09 log2 of fold change | Ywhaz gene expression (GammaA3; [2]): -1.04 log2 of fold change | Zyx gene expression (GammaA3; [2]): -1.34 log2 of fold change | Inhibition of c-Src kinase activity (c-Src): no inhibition | Cells in G1 phase (A2C12): 54.5% | Cells in G2 phase (A2C12): 12.6% | Cells in S phase (A2C12): 33% | Genes regulated in common in A549 and CaCo2 (number) ([1]; Fig. 4A): 13 | Significantly regulated genes (number) ([1]; IC50 concentration, 96 h, cell line not stated): approx. 150

CSc1nc(NCCc2ccc(Cl)cc2)c2cnn(CC(Cl)c3ccccc3)c2n1 (stereo not shown) [Si57]
Cells in G1 phase (A2C12): 44.1% | Cells in G2 phase (A2C12): 12.2% | Cells in S phase (A2C12): 43.7%

Reference: publication PMC2994747, “Molecular Characterization of c-Abl/c-Src Kinase Inhibitors Targeted against Murine Tumour Progenitor Cells that Express Stem Cell Markers” (PLoS ONE, 2010)
